From ChEMBL document CHEMBL3792320, “Synthesis, biological evaluation and molecular docking studies of 2-amino-3,4,5-trimethoxyaroylindole derivatives as novel anticancer agents” (2016) come the findings set out here.

Calls of active or inactive are those of the source. No cut-off for these calls is given here.

Type in all cases: functional
Assay [1] has as its system HT-29. Put plainly: Cytotoxicity against human HT-29 cells assessed as reduction in cell growth after 48 hrs by SRB assay. (In general: Sulforhodamine B stains cellular protein and so reports cell mass.)
The subject of assay [2] is MCF7. Description: Cytotoxicity against human MCF7 cells assessed as reduction in cell growth after 48 hrs by SRB assay.
For assay [3], the system named is MCF7. Description: Cytotoxicity against human MCF7 cells assessed as reduction in cell viability after 72 hrs by MTS assay. The note with it: MCF7, 72 h. (In general: Tetrazolium assays rely on reduction of a dye to a coloured formazan, in cell work by metabolically active cells.)

For the compound `COc1cc(C(=O)c2c[nH]c3cc(F)ccc23)c(N)c(OC)c1OC`, the GI50 came to 64200 nM in assay [1] (HT-29, 48 h) and 42800 nM in assay [2] (MCF7, 48 h). Turning to `COc1cc(C(=O)c2c[nH]c3ccccc23)c(N)c(OC)c1OC`, the 50% growth inhibitory concentration (GI50) amounted to 9800 nM in assay [1] (HT-29, 48 h) and 900 nM in assay [2] (MCF7, 48 h). In the case of `COc1ccc2c(C(=O)c3cc(OC)c(OC)c(OC)c3N)c[nH]c2c1`, the GI50 turned out to be 143 nM in assay [1] (HT-29, 48 h) and 13 nM in assay [2] (MCF7, 48 h). In the case of `COc1ccc2[nH]cc(Cc3cc(OC)c(OC)c(OC)c3N)c2c1`, the GI50 in assay [1] (HT-29, 48 h) was > 100000 nM; in assay [2] (MCF7, 48 h), 32800 nM.

As to `CCOC(=O)c1[nH]c2ccc(Cl)cc2c1C(=O)c1cc(OC)c(OC)c(OC)c1N`, the GI50 was 6840 nM in assay [1] (HT-29, 48 h) and 590 nM in assay [2] (MCF7, 48 h). As for `COc1cc(Cc2c[nH]c3cc(F)ccc23)c(N)c(OC)c1OC`, the GI50 entry in assay [1] and in assay [2] was “inactive” in each case. As for `COc1ccc2c(Cc3cc(OC)c(OC)c(OC)c3N)c[nH]c2c1`, the concentration for 50% growth inhibition (GI50) was determined as 74800 nM in assay [1] (HT-29, 48 h) and 1830 nM in assay [2] (MCF7, 48 h). For `COc1cc(Cc2c[nH]c3ccc(C)cc23)c(N)c(OC)c1OC`, the GI50 entry in assay [1] and in assay [2] was “inactive” throughout. Take `COc1cc(Cc2c[nH]c3cccc(OC)c23)c(N)c(OC)c1OC`: the GI50 entry in assay [1] and in assay [2] was “inactive” in each case. In the case of `COc1ccc(/C=C\c2cc(OC)c(OC)c(OC)c2)cc1O` [COMBRETASTATIN A4], the GI50 in assay [1] (HT-29, 48 h) amounted to 260 nM; in assay [2] (MCF7, 48 h), 25 nM. The matching figures for `CCOC(=O)c1[nH]c2ccc(Br)cc2c1C(=O)c1cc(OC)c(OC)c(OC)c1N`: 5380 nM and 425 nM. The like results for `COC(=O)c1[nH]c2ccc(Cl)cc2c1C(=O)c1cc(OC)c(OC)c(OC)c1N` were, in that order, 2140 nM and 171 nM.

As for `COc1cc2[nH]cc(C(=O)c3cc(OC)c(OC)c(OC)c3N)c2cc1OC`, the 50% growth inhibitory concentration (GI50) in assay [1] (HT-29, 48 h) came to 24400 nM; in assay [2] (MCF7, 48 h) it was 38400 nM. On to `COc1cc(Cc2c[nH]c3ccccc23)c(N)c(OC)c1OC`, for which the GI50 in assay [1] (HT-29, 48 h) is > 100000 nM; in assay [2] (MCF7, 48 h), 45000 nM. Take `COc1cc2[nH]cc(Cc3cc(OC)c(OC)c(OC)c3N)c2cc1OC`: the GI50 result in assay [1] and in assay [2] was “inactive” in each case. Consider `COC(=O)c1[nH]c2ccccc2c1C(=O)c1cc(OC)c(OC)c(OC)c1N`, for which the concentration for 50% growth inhibition (GI50) in assay [1] (HT-29, 48 h) stood at 2380 nM; in assay [2] (MCF7, 48 h), 193 nM. The matching figures for `COC(=O)c1[nH]c2ccc(Br)cc2c1C(=O)c1cc(OC)c(OC)c(OC)c1N`: 1940 nM and 124 nM.

`COc1cc(Cc2c[nH]c3ccc(Cl)cc23)c(N)c(OC)c1OC`: the GI50 entry in assay [1] and in assay [2] was “inactive” in each case. Take `COc1ccc2[nH]cc(C(=O)c3cc(OC)c(OC)c(OC)c3N)c2c1`: the GI50 in assay [1] (HT-29, 48 h) was 950 nM; in assay [2] (MCF7, 48 h) it was 528 nM.

Consider `CCOC(=O)c1[nH]c2ccccc2c1C(=O)c1cc(OC)c(OC)c(OC)c1N`, for which the GI50 in assay [1] (HT-29, 48 h) was 5630 nM; in assay [2] (MCF7, 48 h), 480 nM. For the compound `COc1ccc2c(C(=O)c3cc(OC)c(OC)c(OC)c3)c[nH]c2c1`, the concentration for 50% growth inhibition (GI50) in assay [3] stood at 7 nM. With `COc1cc(C(=O)c2c[nH]c3ccc(Br)cc23)c(N)c(OC)c1OC`, the concentration for 50% growth inhibition (GI50) was found to be 3830 nM in assay [1] (HT-29, 48 h) and 360 nM in assay [2] (MCF7, 48 h).

Regarding `COc1cc(C(=O)c2c[nH]c3cccc(OC)c23)c(N)c(OC)c1OC`, the 50% growth inhibitory concentration (GI50) in assay [1] (HT-29, 48 h) was > 100000 nM; in assay [2] (MCF7, 48 h), > 100000 nM. Regarding `COc1cc(C(=O)c2c[nH]c3ccc(C)cc23)c(N)c(OC)c1OC`, the GI50 was > 100000 nM in assay [1] (HT-29, 48 h) and 12400 nM in assay [2] (MCF7, 48 h). Consider `COc1cc(Cc2c[nH]c3ccc(Br)cc23)c(N)c(OC)c1OC`, for which the GI50 entry in assay [1] and in assay [2] was “inactive” throughout. For `CCOC(=O)c1[nH]c2ccc(OC)cc2c1C(=O)c1cc(OC)c(OC)c(OC)c1N`, the GI50 in assay [1] (HT-29, 48 h) came out at 5150 nM; in assay [2] (MCF7, 48 h), 540 nM. On to `COc1cc(C(=O)c2c[nH]c3c(OC)cccc23)c(N)c(OC)c1OC`, for which the GI50 in assay [1] (HT-29, 48 h) stood at 48600 nM; in assay [2] (MCF7, 48 h) it was 9960 nM. The like results for `COC(=O)c1[nH]c2ccc(OC)cc2c1C(=O)c1cc(OC)c(OC)c(OC)c1N` were, in that order, 1240 nM and 102 nM. The like results for `COc1cc(C(=O)c2c[nH]c3ccc(Cl)cc23)c(N)c(OC)c1OC` were, in that order, 4850 nM and 321 nM. As for `COc1cc(Cc2c[nH]c3c(OC)cccc23)c(N)c(OC)c1OC`, the GI50 result in assay [1] and in assay [2] was “inactive” throughout.

What is called GI50 is the concentration at which growth is held to half of that of the control.
